Assay [1] concerns the target T1, androgen receptor (adenovirus AdEasy+rAR in COS-7 cells) (Rattus norvegicus, UniProt P15207).
T1 construct: expressed in transfected cells
T1 sequence (P15207 1-902): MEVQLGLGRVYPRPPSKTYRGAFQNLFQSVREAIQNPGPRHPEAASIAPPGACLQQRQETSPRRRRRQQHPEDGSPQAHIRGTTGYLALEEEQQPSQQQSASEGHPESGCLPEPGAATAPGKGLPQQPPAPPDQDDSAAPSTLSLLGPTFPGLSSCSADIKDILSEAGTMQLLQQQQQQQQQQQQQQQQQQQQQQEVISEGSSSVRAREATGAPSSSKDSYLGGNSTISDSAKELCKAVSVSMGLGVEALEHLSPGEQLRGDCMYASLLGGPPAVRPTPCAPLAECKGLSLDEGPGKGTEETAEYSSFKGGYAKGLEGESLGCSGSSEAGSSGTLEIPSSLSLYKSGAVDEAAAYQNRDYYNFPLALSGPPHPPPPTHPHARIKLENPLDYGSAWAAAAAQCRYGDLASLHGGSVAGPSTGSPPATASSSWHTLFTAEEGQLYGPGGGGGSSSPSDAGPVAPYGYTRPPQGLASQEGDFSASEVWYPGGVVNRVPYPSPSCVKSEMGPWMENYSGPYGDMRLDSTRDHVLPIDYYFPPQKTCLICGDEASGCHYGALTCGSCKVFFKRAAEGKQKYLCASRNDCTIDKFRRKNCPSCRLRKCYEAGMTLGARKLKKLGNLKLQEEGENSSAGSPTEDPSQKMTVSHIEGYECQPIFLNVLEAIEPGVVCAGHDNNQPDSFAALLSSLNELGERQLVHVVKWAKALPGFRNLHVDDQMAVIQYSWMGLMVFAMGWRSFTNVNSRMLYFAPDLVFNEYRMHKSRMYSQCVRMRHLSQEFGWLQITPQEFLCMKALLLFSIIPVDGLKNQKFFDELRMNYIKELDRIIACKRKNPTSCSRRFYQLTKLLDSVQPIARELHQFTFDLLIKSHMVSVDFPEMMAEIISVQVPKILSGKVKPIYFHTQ
As to the kind of experiment: COS-7 Whole-Cell Androgen Receptor Binding Assay, Adenovirus Transduction. Conditions: for IC50: read-out: IC50.

For assay [2], the target named is T2, androgen receptor (rat ventral prostate cytosol) (Rattus norvegicus, UniProt P15207).
T2 construct: from tissue; host or cells: ventral prostate of castrated male Sprague Dawley or Wistar rats, cytosol
T2 sequence (P15207 1-902): T1 sequence (P15207 1-902)
Put plainly: Androgen Receptor Binding Using Rat Ventral Prostate Cytosol. The method, then:
The assay was run on a 96 well plate with each well filled with a total reaction volume 150 μL, of a solution containing 5 pmol androgen receptor LBD (Panvera) or 30 μL of freshly prepared rat cytosol, 0.5 nM [^3H] […] (TED buffer contains 10 mM Tris.HCl pH 7.4, 1 mM sodium molybdate, 1.5 mM EDTA, 1 mM DTT and 10% (v/v) glycerol.)
On day one, the solution containing receptor, tracer and TED buffer was distributed into a 96 well plate. Diluted test compound or control vehicle was then added to individual wells and the plate incubated at 4° C. overnight.
On day two, to each well was then added 20 μL human γ-globulin (ICN 823102), prepared at 25 mg/ml in TE pH 8.0, and 55 μL 40% polyethylene glycol 8000 (JT Baker U222-08), prepared in TE pH 8.0. The plate was incubated at 4° C. for 60 minutes. During incubation, the harvester was rinsed with 10% PEG 8000, prepared in TE pH 8.0, and a GF/C Unifilter-96 was pre-wet with 10% PEG. The binding reaction was filtered, the retentate was washed three times with 10% PEG and dried under vacuum for a couple of minutes, then dried at 50° C. for 5 min and the plate was bottom sealed. Next, 25 μL of Microscint-20 (Packard) was added to the filter wells and the plate was top sealed. The plate wells were then counted on a TopCount (Packard).
Rat Prostate Cytosol Preparation:
Male Sprague Dawley or Wistar rats (Charles River, 200-300 g) were used for each preparation. The day before preparing the cytosol, the rats were castrated using standard surgical procedures.
The rats were euthanized by carbon dioxide asphyxiation. The rat prostates were quickly removed and placed on ice in pre-chilled, pre-weighed 50 mL plastic tubes. No more than five prostates were placed into one tube. The tubes were then weighed and the prostate tissue wet weights calculated.
To the chilled prostate tissue was then added […] of chilled homogenization buffer. The homogenization buffer was freshly prepared by mixing 10 mM Tris.HCl, pH 7.4, 1 mM sodium molybdate, 1.5 mM EDTA, 1 mM dithiothreitol, 10% (v/v) glycerol and 1% protease inhibitor cocktail (Sigma P 8340).
The prostate tissue was homogenized in a cold room using a pre-chilled Polytron PT3000 homogenizer (Brinkmann). Homogenization was performed at a speed setting of 20, three times for 10 sec bursts. The tubes containing the prostate tissue was kept on ice while homogenizing. The homogenate was allowed to rest on ice for 20 sec between bursts.
The homogenate was then placed into pre-chilled 3 mL polycarbonate ultracentrifuge tubes and centrifuged in the TLA-100 rotor of a TL-100 ultracentrifuge for 12 min at 100,000 rpm at 4° C. The resulting supernatant was stored in 1 mL aliquots at −80° C. until needed.
Binding to the androgen receptor was determined according to the protocol described in Example 86 using the above prepared rat cytosol.
% Inhibition was determined by testing dilutions of the test compound (usually duplicates of 10 μM) in the binding assay. Counts per well were measured and percents of inhibition determined. […] Counts per well were measured and IC50s determined by linear regression.

[3] abbreviates: COS binding, 3000 nM unless otherwise noted.
The mark [4] stands for this setting: rat cytosol, concentration 3000 nM.

Where two headings read alike, the source gives them in different places. A value given as a limit tells only on which side of the number the result lay.

As a reminder, the % Inhibition is the change of the read-out against control, counted positive when it falls. What is called IC50 is the concentration at which inhibition is half-maximal.

Take `COc1ccc(S(=O)(=O)CC(C)(O)c2cc3cc(Cl)c(C(F)(F)F)cc3[nH]2)cc1` (racemic) [compound 129]: the “% Inhibition” value in assay [1] (setting [3]) is reported as 10%; in assay [2] (setting [4]), 39.5%.

On to `CC(O)(C[S+]([O-])Cc1ccccc1)c1cc2cc([N+](=O)[O-])c(C(F)(F)F)cc2[nH]1` (mixture of isomers) [compound 161], for which the “% Inhibition” value in assay [1] (setting [3]) is 20%; in assay [2] (setting [4]), 39%.

For the compound `CSCCC(C)(O)c1cc2cc([N+](=O)[O-])c(C(F)(F)F)cc2[nH]1` (racemic) [compound 47], the “% Inhibition” value amounted to 78% in assay [1] and 81% in assay [2] (3 µM). For the same compound, the half-maximal inhibitory concentration (IC50) in assay [1] (COS binding) was over 1000 nM.

With `CC(C)CSCC(C)(O)c1cc2cc([N+](=O)[O-])c(C(F)(F)F)cc2[nH]1` (racemic) [compound 170], the “% Inhibition” value in assay [1] was 67%; in assay [2] (setting [4]), 80%. The IC50 in assay [1] (COS binding) was over 3000 nM.

Take `COc1ccc(SCC(C)(O)c2cc3cc(Cl)c(C(F)(F)F)cc3n2S(C)(=O)=O)cc1` (racemic) [compound 130]: the “% Inhibition” value in assay [1] (setting [3]) is on record as −8%; in assay [2] (setting [4]), 32.55%.

These data come from US8394971B2, “Indole derivatives as selective androgen receptor modulators (SARMS)” (Janssen Pharmaceutica N.V., priority 2004, dated 2013).
